Results taken from US20240384268A1, “Oligonucleotides” (Hudson Institute of Medical Research, priority 2021, published 2024).
In the oligonucleotide strings, read from the 5' end, every base follows the letter of its sugar. An asterisk marks phosphorothioate; unmarked linkages are phosphodiester. Other units and linkages are bracketed, terminal groups are in braces. A string of capitals states the bases alone. d = 2'-deoxy (DNA); m = 2'-O-methyl

These substances were tested against T1, human TLR7 (Homo sapiens, UniProt Q9NYK1) (assay: HEK-TLR7 NF-κB-luciferase reporter, R848 stimulation). Details: HEK-TLR7; 100 nM ASO; percentage of R848 without ASO (Alharbi et al., 2020).
T1 construct: HA; host or cells: 293XL-hTLR7-HA (HEK293)
T1 sequence (Q9NYK1 27-1049): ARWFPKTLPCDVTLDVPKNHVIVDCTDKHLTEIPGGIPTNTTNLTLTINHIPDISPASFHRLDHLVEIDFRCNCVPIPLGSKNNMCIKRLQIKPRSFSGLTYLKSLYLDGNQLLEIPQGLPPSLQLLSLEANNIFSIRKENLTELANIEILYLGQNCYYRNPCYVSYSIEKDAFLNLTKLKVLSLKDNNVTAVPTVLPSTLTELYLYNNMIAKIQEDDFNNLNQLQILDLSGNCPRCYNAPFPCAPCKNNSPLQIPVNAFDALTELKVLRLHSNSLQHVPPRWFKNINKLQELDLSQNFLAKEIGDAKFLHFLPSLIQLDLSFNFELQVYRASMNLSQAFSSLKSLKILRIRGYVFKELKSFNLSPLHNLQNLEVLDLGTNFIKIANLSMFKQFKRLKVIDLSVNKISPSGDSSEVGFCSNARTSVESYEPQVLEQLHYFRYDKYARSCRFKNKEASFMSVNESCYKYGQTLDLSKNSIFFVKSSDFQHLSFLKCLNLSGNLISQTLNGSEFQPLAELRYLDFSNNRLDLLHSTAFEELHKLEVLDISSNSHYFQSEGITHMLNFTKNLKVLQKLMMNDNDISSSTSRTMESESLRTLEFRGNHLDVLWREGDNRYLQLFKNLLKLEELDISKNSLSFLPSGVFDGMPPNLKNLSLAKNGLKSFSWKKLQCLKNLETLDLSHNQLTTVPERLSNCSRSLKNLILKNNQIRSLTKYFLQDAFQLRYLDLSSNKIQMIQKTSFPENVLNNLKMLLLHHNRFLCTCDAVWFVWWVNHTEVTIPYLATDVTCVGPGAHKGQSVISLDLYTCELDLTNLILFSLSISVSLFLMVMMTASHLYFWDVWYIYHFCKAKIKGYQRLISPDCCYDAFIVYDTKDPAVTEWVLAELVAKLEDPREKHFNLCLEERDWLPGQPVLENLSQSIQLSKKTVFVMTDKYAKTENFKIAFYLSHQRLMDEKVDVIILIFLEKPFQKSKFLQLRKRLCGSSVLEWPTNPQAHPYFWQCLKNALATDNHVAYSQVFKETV
Type: cell-based

First: mU*mC*mU*mC*mC*A*T*G*T*C*C*C*A*G*G*mC*mC*mU*mC*mC (mU*mC*mU*mC*mC*dA*dT*dG*dT*dC*dC*dC*dA*dG*dG*mC*mC*mU*mC*mC; antisense) [[CDKN2B-AS1]2230]
Second: mU*mC*mU*mC*mU*C*T*G*G*T*C*C*C*A*T*mC*mC*mC*mU*mU (mU*mC*mU*mC*mU*dC*dT*dG*dG*dT*dC*dC*dC*dA*dT*mC*mC*mC*mU*mU; antisense) [[LINC-PINT]110]
The “TLR7-100 nM: averaged NF-κB-Luciferase relative to R848” value of the first is lower: 43.45% for the first, 43.82% for the second.

Compared with “mU*mC*mU*mC*mU*G*G*T*C*C*C*A*T*C*C*mC*mU*mU*mC*mU (UCUCUGGTCCCATCCCUUCU; antisense; sugars from the 5' end m5 d10 m5, all phosphorothioate, methylation of C not given here) [[LINC-PINT]108]”, “mU*mC*mU*mG*mG*T*C*C*C*A*T*C*C*C*T*mU*mC*mU*mG*mC (UCUGGTCCCATCCCTUCUGC; antisense; sugars from the 5' end m5 d10 m5, all phosphorothioate, methylation of C not given here) [[LINC-PINT]106]” is lower in “TLR7-100 nM: averaged NF-κB-Luciferase relative to R848” value: 78.25% for the first, 29.42% for the second.

Compared with “mU*mG*mA*mC*mA*A*A*A*C*A*A*T*A*A*T*mA*mA*mC*mA*mG (mU*mG*mA*mC*mA*dA*dA*dA*dC*dA*dA*dT*dA*dA*dT*mA*mA*mC*mA*mG) [[LINC-PINT]384]”, “mU*mG*mA*mC*mA*T*T*T*C*G*T*G*G*C*T*mC*mC*mU*mA*mC (mU*mG*mA*mC*mA*dT*dT*dT*dC*dG*dT*dG*dG*dC*dT*mC*mC*mU*mA*mC; antisense) [[LINC-PINT]523 KL]” is lower in “TLR7-100 nM: averaged NF-κB-Luciferase relative to R848” value: 36.68% for the first, 33.56% for the second.

Going from “mU*mG*mA*mU*mG*A*T*G*C*T*T*G*C*A*G*mG*mA*mG*mG*mC (mU*mG*mA*mU*mG*dA*dT*dG*dC*dT*dT*dG*dC*dA*dG*mG*mA*mG*mG*mC) [[LINC-PINT|283.1]” to “mU*mG*mG*mC*mG*T*A*G*T*T*T*C*T*C*T*mU*mC*mC*mU*mC (mU*mG*mG*mC*mG*dT*dA*dG*dT*dT*dT*dC*dT*dC*dT*mU*mC*mC*mU*mC; antisense) [[LINC-PINT]937.1]”, the “TLR7-100 nM: averaged NF-κB-Luciferase relative to R848” value rises from 25.50% to 32.81%.

Going from “mU*mG*mU*mG*mA*A*A*A*G*A*T*T*A*T*C*mU*mU*mC*mU*mU (UGUGAAAAGATTATCUUCUU; sugars from the 5' end m5 d10 m5, all phosphorothioate, methylation of C not given here) [[CDKN2B-AS1]2137]” to “mU*mG*mU*mU*mU*C*C*C*C*G*G*A*G*A*G*mC*mA*mA*mU*mG (UGUUUCCCCGGAGAGCAAUG; antisense; sugars from the 5' end m5 d10 m5, all phosphorothioate, methylation of C not given here) [[LINC-PINT]501 KL]”, the “TLR7-100 nM: averaged NF-κB-Luciferase relative to R848” value falls from 34.51% to 30.90%.

First: mU*mU*mA*mA*mA*T*A*A*T*C*T*A*G*T*T*mU*mG*mA*mA*mG (UUAAATAATCTAGTTUGAAG; sugars from the 5' end m5 d10 m5, all phosphorothioate, methylation of C not given here) [[CDKN2B-AS1]132]
Second: mU*mU*mA*mG*mC*T*C*C*T*T*G*C*C*T*C*mG*mU*mU*mC*mC (mU*mU*mA*mG*mC*dT*dC*dC*dT*dT*dG*dC*dC*dT*dC*mG*mU*mU*mC*mC; antisense) [[LINC-PINT] 1222]
The “TLR7-100 nM: averaged NF-κB-Luciferase relative to R848” value of the first is lower: 25.66% for the first, 31.67% for the second.

First: mU*mU*mC*mU*mC*T*C*T*G*G*T*C*C*C*A*mU*mC*mC*mC*mU (mU*mU*mC*mU*mC*dT*dC*dT*dG*dG*dT*dC*dC*dC*dA*mU*mC*mC*mC*mU; antisense) [[LINC-PINT]111]
Second: mU*mU*mG*mG*mC*C*T*G*T*G*G*A*T*G*C*mU*mU*mU*mG*mU (mU*mU*mG*mG*mC*dC*dT*dG*dT*dG*dG*dA*dT*dG*dC*mU*mU*mU*mG*mU) [[LINC-PINT]2673.1]
The “TLR7-100 nM: averaged NF-κB-Luciferase relative to R848” value of the first is higher: 26.22% for the first, 21.43% for the second.

First: mU*mU*mG*mU*mG*A*A*A*A*G*A*T*T*A*T*mC*mU*mU*mC*mU (mU*mU*mG*mU*mG*dA*dA*dA*dA*dG*dA*dT*dT*dA*dT*mC*mU*mU*mC*mU) [[CDKN2B-AS1]2138]
Second: mU*mU*mU*mG*mA*A*A*T*T*C*A*G*A*A*G*mA*mU*mU*mU*mG (mU*mU*mU*mG*mA*dA*dA*dT*dT*dC*dA*dG*dA*dA*dG*mA*mU*mU*mU*mG) [[LINC PINT|2690]
The “TLR7-100 nM: averaged NF-κB-Luciferase relative to R848” value of the first is lower: 35.02% for the first, 35.07% for the second.
